The values that follow come from US8674113B2, “Compounds” (Boehringer Ingelheim International GmbH, priority 2010, dated 2014).

Some results are limits rather than exact numbers.

The term IC50 denotes the midpoint of a concentration-inhibition curve.

One test concerns the target mPGES-1 in A549 cells (Homo sapiens (Human), UniProt O14684). As to the kind of experiment: A549 cell-based assay (PGE2 formation, 50% human serum). The following applies: IL-1β 5 ng/ml, 10 nM arachidonic acid, 20-24 h, read-out: mPGES-1 inhibitory effect IC50 in the cell assay. In outline: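 A549 cells in F-12K with 50% human serum were stimulated 20-24 h with 5 ng/ml IL-1β and 10 nM arachidonic acid in presence of compound or vehicle. PGE2 in the cell-free medium was measured by HTRF, normalised to vehicle (100%). IC50 from 6-8 point titrations.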

In test [1] the target is recombinant human mPGES-1 (Homo sapiens (Human), UniProt O14684). In words: mPGES-1 enzyme assay (HTRF detection of PGE2). The class given is biochemical. To be noted: recombinant human mPGES-1 microsomes, PGH2 2 μM, 60 seconds; read-out: mPGES-1 inhibitory effect IC50 in the enzyme assay. The gist of the method: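 Microsomes from E. coli expressing recombinant human mPGES-1 (~0.5 μg protein/well) in 0.1 M phosphate pH 7.4 with 2.5 mM GSH, pre-incubated with compound 25 min at room temperature. PGH2 (2 μM final) added, reaction stopped with FeCl2 after 60 s; PGE2 quantified by HTRF (665/620 ratio) against a calibration curve, IC50 by nonlinear regression after background subtraction.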
Sequence of recombinant human mPGES-1 (O14684 whole entry): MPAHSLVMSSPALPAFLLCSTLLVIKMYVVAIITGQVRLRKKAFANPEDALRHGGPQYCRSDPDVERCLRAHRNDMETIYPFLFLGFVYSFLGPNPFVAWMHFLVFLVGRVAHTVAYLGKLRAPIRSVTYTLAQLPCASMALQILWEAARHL
Background: In TR-FRET formats the signal depends on donor and acceptor labels being close together.

Sequence of mPGES-1 in A549 cells (O14684 whole entry): as above

As to `Cn1c(Nc2c(Cl)ccc(CNC(=O)C(C)(C)C)c2Cl)nc2cc(C(=O)N[C@H]3CC[C@H](C(F)(F)F)CC3)c(N3CCC(O)C3)cc21` (stereo partly shown) [Example 84], the half-maximal inhibitory concentration (IC50) came to 16 nM at mPGES-1 in A549 cells and 3 nM in test [1].

With `Cn1c(Nc2c(Cl)ccc(CNC(=O)C(C)(C)C)c2Cl)nc2cc(C(=O)N[C@H]3CC[C@H](C(F)(F)F)CC3)c(NCCCO)cc21` [Example 85], the IC50 amounted to 86 nM at mPGES-1 in A549 cells and 15 nM in test [1].

As for `Cn1c(Nc2c(Cl)ccc(CNC(=O)C(C)(C)C)c2Cl)nc2cc(C(=O)N[C@H]3CC[C@H](C(F)(F)F)CC3)c(N3CC(C)(O)C3)cc21` [Example 86], the IC50 on mPGES-1 in A549 cells amounted to 5 nM; in test [1], 4 nM.

For the molecule `Cn1c(Nc2c(Cl)ccc(CNC(=O)C(C)(C)C)c2Cl)nc2cc(C(=O)N[C@H]3CC[C@H](C(F)(F)F)CC3)c(N3CC(O)C3)cc21` [Example 87], the figures for the IC50 (at mPGES-1 in A549 cells; in test [1]) were 8 nM and 2 nM, respectively.

As to `CN(Cc1nccn1C)c1cc2c(cc1C(=O)N[C@H]1CC[C@H](C(F)(F)F)CC1)nc(Nc1c(Cl)ccc(CNC(=O)C(C)(C)C)c1Cl)n2C` [Example 88], the IC50 is 1.5 nM at mPGES-1 in A549 cells and 2 nM in test [1].

Consider `Cn1c(Nc2c(Cl)ccc(CNC(=O)C(C)(C)C)c2Cl)nc2cc(C(=O)N[C@H]3CC[C@H](C(F)(F)F)CC3)c(N3CCCC(C(F)(F)F)C3)cc21` (stereo partly shown) [Example 89], for which the figures for the half-inhibitory concentration (IC50) (at mPGES-1 in A549 cells; in test [1]) were 1 nM and 2 nM, respectively.

In the case of `CN(c1cc2c(cc1C(=O)N[C@H]1CC[C@H](C(F)(F)F)CC1)nc(Nc1c(Cl)ccc(CNC(=O)C(C)(C)C)c1Cl)n2C)C1CCC1` [Example 91], the IC50 on mPGES-1 in A549 cells was below 1 nM; in test [1], 4 nM.

Regarding `Cn1c(Nc2c(Cl)ccc(CNC(=O)C(C)(C)C)c2Cl)nc2cc(C(=O)N[C@H]3CC[C@H](C(F)(F)F)CC3)c(N3C4CCC3CC4)cc21` [Example 92], the half-maximal inhibitory concentration (IC50) was 1.4 nM at mPGES-1 in A549 cells and 2 nM in test [1].

As for `Cn1c(Nc2c(Cl)ccc(CNC(=O)C(C)(C)C)c2Cl)nc2cc(C(=O)N[C@H]3CC[C@H](C(F)(F)F)CC3)c(N3CC4(COC4)C3)cc21` [Example 93], the values for the IC50 (on mPGES-1 in A549 cells; in test [1]) were 17 nM and 3 nM, respectively.

Regarding `Cn1c(Nc2c(Cl)ccc(CNC(=O)C(C)(C)C)c2Cl)nc2cc(C(=O)N[C@H]3CC[C@H](C(F)(F)F)CC3)c(N3CC4(CCC4)C3)cc21` [Example 94], the IC50 at mPGES-1 in A549 cells came to 6 nM; in test [1], 4 nM.

As for `Cn1c(Nc2c(Cl)ccc(CNC(=O)C(C)(C)C)c2Cl)nc2cc(C(=O)N[C@H]3CC[C@H](C(F)(F)F)CC3)c(N3CC4CCCC43)cc21` (stereo partly shown) [Example 95], the 50% inhibitory concentration (IC50) at mPGES-1 in A549 cells was found to be 7 nM; in test [1], 2 nM.

Take `Cn1c(Nc2c(Cl)ccc(CNC(=O)C(C)(C)C)c2Cl)nc2cc(C(=O)N[C@H]3CC[C@H](C(F)(F)F)CC3)c(N3CCC3)cc21` [Example 96]: the IC50 was determined as 21 nM on mPGES-1 in A549 cells and 16 nM in test [1].

Consider `COC1CN(c2cc3c(cc2C(=O)N[C@H]2CC[C@H](C(F)(F)F)CC2)nc(Nc2c(Cl)ccc(CNC(=O)C(C)(C)C)c2Cl)n3C)C1` [Example 98], for which the concentration for half-maximal inhibition (IC50) (on mPGES-1 in A549 cells; in test [1]) was 5 nM in each case.

Take `Cn1c(Nc2c(Cl)ccc(CNC(=O)C(C)(C)C)c2Cl)nc2cc(C(=O)N[C@H]3CC[C@H](C(F)(F)F)CC3)c(N3CC(OC(F)F)C3)cc21` [Example 99]: the IC50 is 5 nM on mPGES-1 in A549 cells and 1 nM in test [1].

Turning to `Cn1c(Nc2c(Cl)ccc(CNC(=O)C(C)(C)C)c2Cl)nc2cc(C(=O)N[C@H]3CC[C@H](C(F)(F)F)CC3)c(N3CCC(C(F)(F)F)C3)cc21` (stereo partly shown) [Example 100], the values for the half-maximal inhibitory concentration (IC50) (on mPGES-1 in A549 cells; in test [1]) were 1 nM and 3 nM, respectively.

Take `Cn1c(Nc2c(Cl)ccc(CNC(=O)C(C)(C)C)c2Cl)nc2cc(C(=O)N[C@H]3CC[C@H](C(F)(F)F)CC3)c(N3CC4CCCC4C3)cc21` (stereo partly shown) [Example 101]: the IC50 at mPGES-1 in A549 cells amounted to 1.5 nM; in test [1], 2 nM.

Regarding `Cn1c(Nc2c(Cl)ccc(CNC(=O)C(C)(C)C)c2Cl)nc2cc(C(=O)N[C@H]3CC[C@H](C(F)(F)F)CC3)c(N3CC4COCC4C3)cc21` (stereo partly shown) [Example 102], the half-inhibitory concentration (IC50) was 1.5 nM on mPGES-1 in A549 cells and 2 nM in test [1].

On to `C#CCN(C)c1cc2c(cc1C(=O)N[C@H]1CC[C@H](C(F)(F)F)CC1)nc(Nc1c(Cl)ccc(CNC(=O)C(C)(C)C)c1Cl)n2C` [Example 103, N-(trans-4-Trifluoromethyl-cyclohexyl)-2-{2,6-dichloro-3-[(2,2-dimethyl-propionylamino)-methyl]-phenylamino}-6-[N-methyl-N-propargylamino]-1-methyl-1H-benzimidazole-5-carboxylic acid amide], for which the values for the 50% inhibitory concentration (IC50) (on mPGES-1 in A549 cells; in test [1]) were below 1 nM and 1 nM, respectively.

Take `COC(C)CN(C)c1cc2c(cc1C(=O)N[C@H]1CC[C@H](C(F)(F)F)CC1)nc(Nc1c(Cl)ccc(CNC(=O)C(C)(C)C)c1Cl)n2C` (stereo partly shown) [Example 104]: the results for the IC50 (on mPGES-1 in A549 cells; in test [1]) were 1 nM and 2 nM, respectively.

Turning to `CN(CCS(C)(=O)=O)c1cc2c(cc1C(=O)N[C@H]1CC[C@H](C(F)(F)F)CC1)nc(Nc1c(Cl)ccc(CNC(=O)C(C)(C)C)c1Cl)n2C` [Example 105], the values for the 50% inhibitory concentration (IC50) (at mPGES-1 in A549 cells; in test [1]) were 10 nM and 2 nM, respectively.

As to `CC(O)CN(C)c1cc2c(cc1C(=O)N[C@H]1CC[C@H](C(F)(F)F)CC1)nc(Nc1c(Cl)ccc(CNC(=O)C(C)(C)C)c1Cl)n2C` (stereo partly shown) [Example 106], the half-maximal inhibitory concentration (IC50) at mPGES-1 in A549 cells is below 1 nM; in test [1], 2 nM.

For the molecule `CN(CC1(C)CC1)c1cc2c(cc1C(=O)N[C@H]1CC[C@H](C(F)(F)F)CC1)nc(Nc1c(Cl)ccc(CNC(=O)C(C)(C)C)c1Cl)n2C` [Example 107], the IC50 was below 1 nM at mPGES-1 in A549 cells and 1 nM in test [1].

Turning to `Cn1c(Nc2c(Cl)ccc(CNC(=O)C(C)(C)C)c2Cl)nc2cc(C(=O)N[C@H]3CC[C@H](C(F)(F)F)CC3)c(N3CCN(C4CC4)CC3)cc21` [Example 108], the figures for the half-inhibitory concentration (IC50) (at mPGES-1 in A549 cells; in test [1]) were below 1 nM and 1 nM, respectively.

For `CN(CC(C)(C)O)c1cc2c(cc1C(=O)N[C@H]1CC[C@H](C(F)(F)F)CC1)nc(Nc1c(Cl)ccc(CNC(=O)C(C)(C)C)c1Cl)n2C` [Example 109], the IC50 at mPGES-1 in A549 cells worked out at 1 nM; in test [1] it was 2 nM.

For `CN(Cc1ccc(F)cc1)c1cc2c(cc1C(=O)N[C@H]1CC[C@H](C(F)(F)F)CC1)nc(Nc1c(Cl)ccc(CNC(=O)C(C)(C)C)c1Cl)n2C` [Example 110, N-(trans-4-Trifluoromethyl-cyclohexyl)-2-{2,6-dichloro-3-[(2,2-dimethyl-propionylamino)-methyl]-phenylamino}-6-[N-methyl-N-(4-fluorobenzyl)amino]-1-methyl-1H-benzimidazole-5-carboxylic acid amide], the results for the 50% inhibitory concentration (IC50) (on mPGES-1 in A549 cells; in test [1]) were 1.6 nM and 2 nM, respectively.

`CN(CC(N)=O)c1cc2c(cc1C(=O)N[C@H]1CC[C@H](C(F)(F)F)CC1)nc(Nc1c(Cl)ccc(CNC(=O)C(C)(C)F)c1Cl)n2C` [Example 111]: the results for the IC50 (on mPGES-1 in A549 cells; in test [1]) were 22 nM and 2 nM, respectively.

`CN(CC#N)c1cc2c(cc1C(=O)N[C@H]1CC[C@H](C(F)(F)F)CC1)nc(Nc1c(Cl)ccc(CNC(=O)C(C)(C)C)c1Cl)n2C` [Example 112, N-(trans-4-Trifluoromethyl-cyclohexyl)-2-{2,6-dichloro-3-[(2,2-dimethyl-propionylamino)-methyl]-phenylamino}-6-[N-methyl-N-cyanomethyl-amino]-1-methyl-1H-benzimidazole-5-carboxylic acid amide]: the results for the IC50 (on mPGES-1 in A549 cells; in test [1]) were 1 nM and 3 nM, respectively.

Regarding `Cn1ccnc1CNc1cc2c(cc1C(=O)N[C@H]1CC[C@H](C(F)(F)F)CC1)nc(Nc1c(Cl)ccc(CNC(=O)C(C)(C)C)c1Cl)n2C` [Example 113], the half-maximal inhibitory concentration (IC50) at mPGES-1 in A549 cells came to 62 nM; in test [1], 8 nM.

For `CN(c1cc2c(cc1C(=O)N[C@H]1CC[C@H](C(F)(F)F)CC1)nc(Nc1c(Cl)ccc(CNC(=O)C(C)(C)C)c1Cl)n2C)C1CCSC1` (stereo partly drawn) [Example 117, N-(trans-4-trifluoromethyl-cyclohexyl)-2-{2,6-dichloro-3-[(2,2-dimethyl-propionylamino)-methyl]-phenylamino}-6-[N-methyl-N-(tetrahydro-thiophen-3-yl)-amino]-1-methyl-1H-benzimidazole-5-carboxylic acid amide], the IC50 (at mPGES-1 in A549 cells; in test [1]) was 2 nM throughout.

Regarding `CN(c1cc2c(cc1C(=O)N[C@H]1CC[C@H](C(F)(F)F)CC1)nc(Nc1c(Cl)ccc(CNC(=O)C(C)(C)C)c1Cl)n2C)C1CC[S+]([O-])C1` (stereo partly drawn) [Example 118, N-(trans-4-Trifluoromethyl-cyclohexyl)-2-{2,6-dichloro-3-[(2,2-dimethyl-propionylamino)-methyl]-phenylamino}-6-[N-methyl-N-(1-oxo-tetrahydro-thiophen-3-yl)-amino]-1-methyl-1H-benzimidazole-5-carboxylic acid amide], the IC50 at mPGES-1 in A549 cells was found to be 10 nM; in test [1], 3 nM.

On to `CN(c1cc2c(cc1C(=O)N[C@H]1CC[C@H](C(F)(F)F)CC1)nc(Nc1c(Cl)ccc(CNC(=O)C(C)(C)C)c1Cl)n2C)C1CCS(=O)(=O)C1` (stereo partly drawn) [Example 119, N-(trans-4-Trifluoromethyl-cyclohexyl)-2-{2,6-dichloro-3-[(2,2-dimethyl-propionylamino)-methyl]-phenylamino}-6-[N-methyl-N-(1,1-dioxo-tetrahydro-thiophen-3-yl)-amino]-1-methyl-1H-benzimidazole-5-carboxylic acid amide], for which the IC50 at mPGES-1 in A549 cells was 1 nM; in test [1], 2 nM.

For `Cn1c(Nc2c(Cl)ccc(CNC(=O)C(C)(C)F)c2Cl)nc2cc(C(=O)N[C@H]3CC[C@H](C(F)(F)F)CC3)c(N3CC[C@@H](F)C3)cc21` [Example 120], the results for the IC50 (on mPGES-1 in A549 cells; in test [1]) were 1 nM and 3 nM, respectively.
